Measured values reported in patent US20020161202A1, “Apo-2DcR” (Genentech, Inc., priority 1997, published 2002).
Each block holds one molecule with its values, some of them ahead of it. Where a SMILES comes first, the peptide text is derived from it. [ ]: non-standard residue; d: D form. The star is where a group is joined. Nle = CCCC[C@H](N)C(=O)O; Cbz = O=C(OCc1ccccc1)*; CH2F = FC*

Legend:
HeLa cells [1] = test: Effect of preincubation with inhibitors on Apo-2L-induced apoptosis in HeLa cells (FACS); assay type: cell-based, human; details: Apo-2L 1 μg/ml, 5 hour incubation, FIG. 12C
Protocol: The effects of a NF-κB inhibitor, ALLN (N-acetyl-Leu-Leu-norleucinal) and a […] inhibitor, cyclohexamide, were also tested. The HeLa cells (plated in 6-well dishes) were preincubated with PBS buffer, ALLN (Calbiochem) (40 μg/ml) or cyclohexamide (Sigma) (50 μg/ml) for 1 hour before addition of Apo-2L (1 μg/ml). After a 5 hour incubation, apoptosis was analyzed by FACS (see FIG. 12C).

HeLa cells [2] = test: Apoptosis induction by Apo-2 in transfected HeLa cells, FACS analysis of phosphatydilserine exposure; assay type: cell-based, human; details: inhibitor added at 200 μM at the time of transfection, FIG. 11C
Description: (§1) Because death domains can function as oligomerization interfaces, over-expression of receptors that contain death domains may lead to activation of signaling in the absence of ligand [Frazer et al., supra, Nagata et al., supra]. To determine whether Apo-2 was capable of inducing cell death, human 293 cells or HeLa cells (ATCC CCL 2.2) were transiently transfected by calcium phosphate precipitation (293 cells) or electroporation (HeLa cells) with a pRK5 vector or pRK5-based plasmids encoding Apo-2 and/or CrmA. When applicable, the total amount of plasmid DNA was adjusted by adding vector DNA. Apoptosis was assessed 24 hours after transfection by morphology (FIG. 11A); DNA fragmentation (FIG. 11B); or by FACS analysis of phosphatydilserine exposure (FIG. 11C) as described in Marsters et al., Curr. Biol., 6:1669 (1996).
For samples assayed by FACS, the HeLa cells were co-transfected with pRK5-CD4 as a marker for transfection and apoptosis was determined in CD4-expressing cells; FADD was co-transfected with the Apo-2 plasmid; the data are means±SEM of at least three experiments, as described in Marsters et al., Curr. Biol., 6:1669 (1996). The caspase inhibitors, DEVD-fmk (Enzyme Systems) or z-VAD-fmk (Research Biochemicals Intl.) were added at 200 μM at the time of transfection.

HeLa cells [3] = test: Apo-2L-induced apoptosis in HeLa cells by FACS and its inhibition by soluble Apo-2 ECD; assay type: cell-based, human
Protocol: Soluble Apo-2L ([…], prepared as described in Pitti et al., supra) was pre-incubated for 1 hour at room temperature with PBS buffer or affinity-purified Apo-2 ECD (5 μg/ml) together with anti-Flag antibody (Sigma) (1 μg/ml) and added to HeLa cells. After a 5 hour incubation, the cells were analyzed for apoptosis by FACS (as above) (FIG. 11D).

Apo-2L = test: Co-precipitation assay of Apo-2 ECD-Flag with poly-histidine-tagged Apo-2L; assay type: binding; details: Apo-2 ECD-Flag supernatant with 5 μg poly-histidine-tagged soluble Apo-2L; FIG. 10
Apo-2L, sequence (P50591 39-281 limits assumed): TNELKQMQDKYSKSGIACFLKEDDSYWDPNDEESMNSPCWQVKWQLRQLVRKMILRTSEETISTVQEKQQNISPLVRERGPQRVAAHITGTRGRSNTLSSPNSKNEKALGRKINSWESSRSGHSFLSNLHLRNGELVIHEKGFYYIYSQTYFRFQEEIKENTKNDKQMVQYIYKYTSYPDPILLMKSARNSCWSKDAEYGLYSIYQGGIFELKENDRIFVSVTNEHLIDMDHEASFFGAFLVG
Apo-2L, sequence (O14763 56-184 partner limits assumed): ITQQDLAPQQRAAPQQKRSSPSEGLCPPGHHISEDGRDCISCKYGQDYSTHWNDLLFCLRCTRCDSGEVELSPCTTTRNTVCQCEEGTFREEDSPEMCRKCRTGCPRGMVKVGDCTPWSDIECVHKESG
Protocol: To determine whether Apo-2 and Apo-2L interact or associate with each other, supernatants from mock-transfected 293 cells or from 293 cells transfected with Apo-2 ECD-Flag (described in Example 6 above) (5 ml) were incubated with 5 μg poly-histidine-tagged soluble Apo-2L [Pitti et al., supra] for 30 minutes at room temperature and then analyzed for complex formation by a co-precipitation assay.
The samples were subjected to immunoprecipitation using 25 μl anti-Flag conjugated agarose beads (Sigma) or Nickel-conjugated agarose beads (Qiagen). After a 1.5 hour incubation at 4° C., the beads were spun down and washed four times in phosphate buffered saline (PBS). By using anti-Flag agarose, the Apo-2L was precipitated through the Flag-tagged Apo-2 ECD; by using Nickel-agarose, the Apo-2 ECD was precipitated through the His-tagged Apo-2L. The precipitated proteins were released by boiling the beads for 5 minutes in SDS-PAGE buffer, resolved by electrophoresis on 12% polyacrylamide gels, and then detected by immunoblot with anti-Apo-2L or anti-Flag antibody (2 μg/ml) as described in Marsters et al., J. Biol. Chem., (1997).

Fas/Apo-1 ligand = target: T1, Fas/Apo-1 ligand (Homo sapiens, UniProt P48023); test: BIACORE analysis of Apo-2 ECD; assay type: binding
T1 construct: purchased Alexis Biochemicals
T1 sequence (P48023 103-281 limits assumed): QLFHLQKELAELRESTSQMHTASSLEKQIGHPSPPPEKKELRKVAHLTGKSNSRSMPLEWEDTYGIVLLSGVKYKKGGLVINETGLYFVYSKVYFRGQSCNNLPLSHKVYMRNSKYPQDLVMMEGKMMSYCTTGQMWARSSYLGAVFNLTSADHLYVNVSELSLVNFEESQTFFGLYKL
Protocol: (§2) The binding interaction was further analyzed by purifying Apo-2 ECD from the transfected 293 cell supernatants with anti-Flag beads (see Example 6) and then analyzing the samples on a BIACORE™ instrument. The BIACORE™ analysis indicated a dissociation constant (Kd) of about 1 nM.

TNF-alpha = TNF-alpha (Homo sapiens, UniProt P01375); test: BIACORE analysis of Apo-2 ECD; assay type: binding
TNF-alpha, sequence (P01375 77-233 limits assumed): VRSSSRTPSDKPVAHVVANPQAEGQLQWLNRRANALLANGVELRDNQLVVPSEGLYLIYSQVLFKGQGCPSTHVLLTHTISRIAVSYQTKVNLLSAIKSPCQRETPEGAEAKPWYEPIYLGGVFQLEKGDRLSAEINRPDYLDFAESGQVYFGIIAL
Protocol: as §2

lymphotoxin-alpha = target: T2, lymphotoxin-alpha (Homo sapiens, UniProt P01374); test: BIACORE analysis of Apo-2 ECD; assay type: binding
T2 sequence (P01374 35-205): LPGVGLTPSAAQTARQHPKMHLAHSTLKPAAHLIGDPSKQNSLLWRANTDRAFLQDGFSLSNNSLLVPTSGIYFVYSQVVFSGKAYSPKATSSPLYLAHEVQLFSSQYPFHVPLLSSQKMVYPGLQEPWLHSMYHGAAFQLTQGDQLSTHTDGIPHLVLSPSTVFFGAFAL
Protocol: as §2

NF-κB [4] = test: NF-κB activation in HeLa cells transfected with receptor plasmids (electrophoretic mobility shift assay); assay type: cell-based, human; details: harvested 24 hours after transfection, FIG. 12A
Protocol: HeLa cells were transfected with pRK5 expression plasmids encoding full-length native sequence Apo-2, DR4 or Apo-3 and harvested 24 hours after transfection. […] Immunol., 153:5274-5284 (1994)], alone or together with a 50-fold excess of unlabelled probe, or with an irrelevant ^32P-labelled synthetic oligonucleotide […] NO: 13). In some samples, antibody to p65/RelA subunits of NF-κB (1 μg/ml; Santa Cruz Biotechnology) was added. DNA binding was analyzed by an electrophoretic mobility shift assay as described by Hsu et al., supra; Marsters et al., supra, and MacKay et al., supra.

Human 293 cells = test: Induction of apoptosis by Apo-2 transfection, morphology and DNA fragmentation; assay type: cell-based; details: 24 hours after transfection; morphology, DNA fragmentation; FIGS. 11A and 11B
Description: as §1

NF-κB [5] = test: NF-κB activity in HeLa cells treated with soluble ligand; assay type: cell-based, human; details: 1 μg/ml, FIG. 12B

Molecule: CCCC[C@@H](C=O)NC(=O)[C@H](CC(C)C)NC(=O)[C@H](CC(C)C)NC(C)=O [ALLN, N-acetyl-Leu-Leu-norleucinal] (Ac-Leu-Leu-[Nle]-aldehyde)
- level of Apo-2L-induced apoptosis (HeLa cells [1]; HeLa cells preincubated 1 hour with ALLN 40 μg/ml): increased

Molecule: COC(=O)CC[C@H](NC(=O)[C@H](CC(=O)OC)NC(=O)OCc1ccccc1)C(=O)N[C@H](C(=O)N[C@@H](CC(=O)OC)C(=O)CF)C(C)C [DEVD-fmk]
- apoptosis induction by Apo-2 (HeLa cells [2]): blocked

Molecule: C[C@@H]1C[C@@H]([C@H](O)CC2CC(=O)NC(=O)C2)C(=O)[C@@H](C)C1 [cyclohexamide]
- level of Apo-2L-induced apoptosis (HeLa cells [1]; HeLa cells preincubated 1 hour with cyclohexamide 50 μg/ml): increased

Molecule: COC(=O)C[C@H](NC(=O)[C@H](C)NC(=O)[C@@H](NC(=O)OCc1ccccc1)C(C)C)C(=O)CF [z-VAD-fmk] (Cbz-Val-Ala-Asp(OMe)-CH2F)
- apoptosis induction by Apo-2 (HeLa cells [2]): blocked

- IC50 (HeLa cells [3]; dose-response analysis of inhibition of Apo-2L-induced apoptosis, HeLa cells, FIG. 11E, read-out: half-maximal inhibition): ~0.3 nM
Molecule: Apo-2 ECD immunoadhesin: Apo-2 ECD (amino acids 1-184) fused to the hinge and Fc region of human immunoglobulin G1 heavy chain

- binding to Fas/Apo-1 ligand (Fas/Apo-1 ligand): not capable of binding
- binding to TNF-alpha (TNF-alpha): not capable of binding
Molecule: Apo-2 ECD: soluble Apo-2 extracellular domain (amino acid residues 1-184) fused to a C-terminal Flag epitope tag
- complex formation with Apo-2L (Apo-2L): can associate with each other
- binding to lymphotoxin-alpha (lymphotoxin-alpha): not capable of binding
- blocking of Apo-2L action (apoptosis) (HeLa cells [3]; Apo-2 ECD 5 μg/ml with anti-Flag antibody 1 μg/ml, pre-incubated 1 hour with Apo-2L 0.5 μ/ml, HeLa cells, FIG. 11D): capable of blocking Apo-2L action

Molecule: Apo-2: full-length native sequence human Apo-2, 411 amino acid type I transmembrane protein with death domain; expressed by transfection
- NF-κB activation upon transfection (NF-κB [4]): significant NF-κB activation
- apoptosis of transfected 293 cells (Human 293 cells): marked apoptosis

Molecule: Apo-2L: Apo-2 ligand (also referred to as TRAIL), TNF family cytokine; soluble form as in Pitti et al.
- apoptosis in HeLa cells (HeLa cells [3]; soluble Apo-2L 0.5 μ/ml, 5 hour incubation, FACS, FIG. 11D): marked apoptosis
- NF-κB activation in treated HeLa cells (NF-κB [5]): significant NF-κB activation

Molecule: DR4: TNF receptor family member with cytoplasmic death domain, receptor for Apo-2 ligand; expressed by transfection [reference compound]
- NF-κB activation upon transfection (NF-κB [4]): significant NF-κB activation
